Legend:
MDA-MB-468 cells [1] = format: cell-based, human; conditions: 48 h
Description: Cells were plated a density of 2×10^6 cells/plate in 100-mm plate. After 24 hr, cells incubated in media containing serum-free for 3 hr. Then, cells were treated with U75302 (0.5, 1 μM), LY255283 (5, 10 μM) and incubated at 37° C. for 48 h. Both attached and detached cells were collected and resuspended in a lysis buffer (20 mM Tris/HCl, pH 8.0, 0.1 mM EDTA, 1% SDS, and 0.5 mg/ml proteinase K) and then incubated at 50° C. for overnight. DNA was extracted with phenol/chloroform.

[2] = tested on: 253J-BV bladder cancer cell; assay: DNA fragmentation; format: cell-based, human; conditions: 10 μM LY255283 or 1 μM U75302, 48 hr
Description: DNA fragmentation was shown by the harvesting of total cellular DNA. Cells were grown in 100 mm plates to 80% confluence with 10% FBS-supplemented medium. […] Cellular DNA from cells extracted incubating with lysis buffer (1 mM EDTA, 10 mM Tris, 120 mM NaCl, 1% SDS and 100 μg/ml proteinase K, pH 8.0) for 12 hr at 50° C. The lysate was centrifuged for 10 min at 13,000×g to separate the fragment DNA from intact chromatin (nuclear pellet). The supernatant was then extracted twice with phenol/chloroform/isoamyl alcohol and precipitated with absolute ethanol. […] After electrophoresis, gels were stained with ethidium bromide, and the DNA was visualized by UV light. Apoptosis is characterized by fragmentation of chromosomal DNA. The effect of BLT antagonists on DNA damage of bladder cancer cell line was investigated.

[3] = tested on: breast cancer cell line, T47D (ER+), MDA-MB-468 (ER−), MDA-MB-453 (ER−); assay: cell growth assay (trypan blue exclusion); format: cell-based, human; conditions: LY255283 5, 10 μM; U75302 0.5, 1 μM; 24, 48, 72 hr
Description: (§1) To investigate the effect of BLT2 antagonist, LY255283 and BLT1 antagonist, U75302 on growth of breast cancer, breast cancer cell line, T47D (ER+), MDA-MB-468 (ER−), MDA-MB-453 (ER−) and normal IMR-90 cells were used. Cells were treated with LY255283 and U75302 in a dose-dependent manner and analyzed for cell number using the trypan blue dye exclusion method. Cells were plated at a density of 0.5×10^5 or 5×10^5 cells/well on 12-well plate. After 24 h, cells were incubated in media containing 0.5% serum for 3 hr. Then, cells were treated with U75302 (0.5, 1 μM), LY255283 (5, 10 μM) and incubated at 37° C. for indicated time (24, 48, and 72 hr). To measure the growth of cell, the treated cells were then trypsinized at each time point, and counted by the trypan-blue exclusion method

normal IMR-90 cells = assay: cell growth assay (trypan blue exclusion); format: cell-based; conditions: LY255283 5, 10 μM; U75302 0.5, 1 μM; 24, 48, 72 hr
Description: as §1

MDA-MB-468 cells [4] = assay: Western blotting of caspase-9 and PARP; format: cell-based, human; conditions: 48 hr
Description: Cells were plated a density of 2×10^6 cells/plate in 100-mm plate. After 24 h, cells incubated in media containing serum-free for 3 hr. Then, cells were treated with U75302 (0.5, 1 μM), LY255283 ([…]) and incubated at 37° C. for 48 hr. […] Proteins were separated by SDS-PAGE and transferred onto a nitrocellulose membrane. The membrane was blocked with 5% nonfat dry milk in Tris-buffered saline and then incubated with primary antibodies against caspase-9, PARP for 1 h at room temperature. Blots were developed with a peroxidase-conjugated secondary antibody and proteins were visualized by enhanced chemiluminescence (ECL) procedures (Amersham, USA) according to the manufacturer's recommendation

LNCaP cells [5] = assay: cell cycle analysis (PI, flow cytometry); format: cell-based, human; conditions: 5 μM, 48 hr
Description: After LNCaP cells and PWR-1E cells were treated with 5 μM LY255283 for 48 hr, the cells were fixed with 70% ethanol and stained with Pl. Cell cycle was analyzed using flow cytometry. The cells grown in 6-well cluster dishes were stimulated with 5 μM LY255283 for 48 h in serum free RPMI 1640. The cells which were collected by brief trypsinization were fixed for 12 hr with 70% ethanol at 4° C. The cells were resuspended in PBS containing RNase A (100 μg/ml) and incubated for 30 min at 37° C. The cells were stained with propidium iodide (50 μg/ml) (Sigma). Acquisition and analysis was performed by FACS using Cell Quest Alias software (BD Bioscience).

LNCaP cells [6] = assay: cell counting with trypan blue; format: cell-based, human; conditions: 1 μM and 5 μM, serum free RPMI 1640
Description: The effect of LY255283 was observed by counting of cell number. The cells were grown in 6-well cluster dishes to 70% confluence with 10% FBS-supplemented medium. At day 0, the medium was replaced with serum free RPMI 1640 and cells were stimulated with DMSO or 1 μM and 5 μM LY255283. The cells were harvested at various intervals. Cells were washed with PBS and collected by brief trypsinization. Total cell number was determined by counting each sample in duplicate with a hemocytometer using trypan blue dye. The cells treated with LY255283 in serum free RPM11640 were harvested at various intervals. […] In contrast, PWR-1 E cells which expressed few level of BLT2 were not affected by LY255283.

MDA-MB-468 cells [7] = assay: DAPI staining, apoptotic cells; format: cell-based, human; conditions: 2, 5, 10 μM, 48 h
Description: Cells were grown on sterile coverslips at a density of 7×10^5 cells/plate in 35-mm plate. After 24 h, cells incubated in media containing serum-free for 3 h. Then, cells were treated with U75302 (0.5, 1 μM), LY255283 (5, 10 μM) and incubated at 37° C. for 48 h. Then, cells were fixed with 70% cold-ethanol for 30 min at room temperature, and then washed once with PBS. DAPI (50 ng/ml) was added to the fixed cells, incubated for 20 min at room temperature, and washed with PBS. Cells were mounted and examined by fluorescence microscopy. Apoptotic cells were identified by the condensation and fragmentation of their nuclei. The percentage of apoptotic cells was calculated as the ratio of apoptotic cells to total cells counted. A minimum of 500 cells were counted for each treatment.

| Compound | DNA fragmentation (MDA-MB-468 cells [1]) | DNA fragmentation [2] | growth of breast cancer cell lines [3] | growth of normal IMR-90 cells (normal IMR-90 cells) | activation of caspase-9 and PARP cleavage (MDA-MB-468 cells [4]) | sub-G1 population (LNCaP cells [5]) | number of LNCaP cells (LNCaP cells [6]) | apoptosis (DAPI staining) (MDA-MB-468 cells [7]) |
| --- | --- | --- | --- | --- | --- | --- | --- | --- |
| CCCCC/C=C\C[C@@H](O)/C=C/c1cccc(C[C@@H](O)CCCCO)n1 [U75302] | did not induce DNA fragmentation | not observed DNA fragments | had no effect on growth | had no effect on growth | did not affect on caspase-9 activation and PARP cleavage |  |  |  |
| CCc1cc(C(C)=O)c(O)cc1OCCCCCC(C)(C)c1nnn[nH]1 [LY255283, 1-[5-ethyl-2-hydroxy-4-[[6-methyl-6-(1H-tetrazol-5-yl)heptyl]oxy]phenyl]-ethanone] | laddering pattern characteristic of apoptosis | a ladder like pattern of DNA fragments | significantly inhibits the growth | did not affect | dose-dependent activation of caspase-9 and cleavage of PARP | increased population of cells with sub-GI DNA content | significantly reduced | induces apoptosis via a dose-dependent manner |
